What all share (settings): crude E. coli lysate 70 µg/mL protein, 0.1 M Na-phosphate pH 7, 37 °C
One experiment addresses EEB1 (Saccharomyces cerevisiae, UniProt Q02891).
The next experiment addresses T1, AcAlT (Komagataella phaffii, UniProt C4QX24).
T1 construct: gene PAS_chr1-1_0419; codon-optimized gene in pET15b (pAPS07), E. coli BL21-DE3 strain SSL26; crude lysate
T1 sequence (C4QX24 1-452): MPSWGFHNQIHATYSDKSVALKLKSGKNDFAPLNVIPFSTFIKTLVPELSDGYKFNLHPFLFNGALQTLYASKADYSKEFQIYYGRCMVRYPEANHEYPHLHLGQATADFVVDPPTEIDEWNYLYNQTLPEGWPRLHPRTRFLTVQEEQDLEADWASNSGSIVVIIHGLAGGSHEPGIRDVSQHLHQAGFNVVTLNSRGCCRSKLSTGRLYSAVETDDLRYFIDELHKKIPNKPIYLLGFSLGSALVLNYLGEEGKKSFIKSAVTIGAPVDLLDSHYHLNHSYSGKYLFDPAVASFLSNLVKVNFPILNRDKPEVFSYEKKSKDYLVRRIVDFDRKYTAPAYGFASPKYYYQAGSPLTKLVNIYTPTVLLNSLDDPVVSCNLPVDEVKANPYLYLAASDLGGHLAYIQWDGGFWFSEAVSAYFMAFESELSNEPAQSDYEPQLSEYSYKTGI
Nature of the experiment: p-nitrophenol release, absorbance […] nm. The class given is biochemical.

Another experiment deals with T2, tEstA (Pseudomonas aeruginosa, UniProt O33407).
T2 construct: gene estA; crude lysate
T2 sequence (O33407 25-646): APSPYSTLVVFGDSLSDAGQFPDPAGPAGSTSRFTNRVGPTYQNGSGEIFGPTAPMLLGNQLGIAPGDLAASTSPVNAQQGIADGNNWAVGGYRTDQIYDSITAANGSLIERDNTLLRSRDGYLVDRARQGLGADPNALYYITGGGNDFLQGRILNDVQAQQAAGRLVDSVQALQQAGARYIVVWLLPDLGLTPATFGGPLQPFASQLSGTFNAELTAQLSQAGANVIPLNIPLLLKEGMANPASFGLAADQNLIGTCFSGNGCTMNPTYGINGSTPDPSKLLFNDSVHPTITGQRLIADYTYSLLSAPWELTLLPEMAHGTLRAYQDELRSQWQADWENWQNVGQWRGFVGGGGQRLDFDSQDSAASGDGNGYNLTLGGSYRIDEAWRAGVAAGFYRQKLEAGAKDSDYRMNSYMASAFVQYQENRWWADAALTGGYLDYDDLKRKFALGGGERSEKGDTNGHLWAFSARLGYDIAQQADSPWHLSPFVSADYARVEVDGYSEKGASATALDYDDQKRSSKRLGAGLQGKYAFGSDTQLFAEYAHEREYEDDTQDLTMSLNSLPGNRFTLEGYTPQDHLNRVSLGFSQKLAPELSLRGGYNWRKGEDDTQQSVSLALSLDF
Nature of the experiment: p-nitrophenol release, absorbance […] nm. The class given is biochemical.

For a further experiment, the target named is T3, CE (Brettanomyces bruxellensis, UniProt A0A7D9GZZ0).
T3 construct: gene DEBR0S1_34310G; crude lysate
T3 sequence (A0A7D9GZZ0 entry or part of it): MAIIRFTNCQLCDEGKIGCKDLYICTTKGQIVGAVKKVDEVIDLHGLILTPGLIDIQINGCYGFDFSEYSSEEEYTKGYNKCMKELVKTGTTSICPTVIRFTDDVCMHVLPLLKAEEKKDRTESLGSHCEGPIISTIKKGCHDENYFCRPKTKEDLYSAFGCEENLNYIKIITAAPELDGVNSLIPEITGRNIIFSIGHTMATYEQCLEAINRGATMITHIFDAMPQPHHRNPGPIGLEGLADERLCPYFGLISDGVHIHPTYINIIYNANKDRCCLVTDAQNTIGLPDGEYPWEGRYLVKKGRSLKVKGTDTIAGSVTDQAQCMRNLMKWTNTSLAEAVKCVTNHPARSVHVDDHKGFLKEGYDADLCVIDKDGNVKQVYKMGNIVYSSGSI
Description: p-nitrophenol release, absorbance […] nm. The class given is biochemical.

Each structure is given as a SMILES string.

Chain of EEB1 (Q02891 whole entry): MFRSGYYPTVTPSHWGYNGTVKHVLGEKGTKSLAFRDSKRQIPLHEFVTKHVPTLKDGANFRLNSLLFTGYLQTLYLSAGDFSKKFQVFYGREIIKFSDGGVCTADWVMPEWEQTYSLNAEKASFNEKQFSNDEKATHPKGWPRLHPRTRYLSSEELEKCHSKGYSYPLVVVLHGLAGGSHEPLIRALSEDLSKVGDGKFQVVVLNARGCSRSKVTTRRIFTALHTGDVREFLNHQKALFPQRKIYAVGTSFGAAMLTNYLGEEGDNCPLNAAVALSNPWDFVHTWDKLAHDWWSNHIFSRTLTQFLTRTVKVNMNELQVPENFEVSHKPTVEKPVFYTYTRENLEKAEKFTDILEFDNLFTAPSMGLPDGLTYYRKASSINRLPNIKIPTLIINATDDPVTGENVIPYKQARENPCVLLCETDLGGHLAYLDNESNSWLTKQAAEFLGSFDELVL

As for `CC(=O)Oc1ccc([N+](=O)[O-])cc1` [p-nitrophenyl acetate], the KM result is “KM values revealed that EEB1 exhibited the highest catalytic efficiency for pNPA hydrolysis” at EEB1; “AcAlT, despite being acyltransferase, showed the second highest efficiency and relatively lower KM” at AcAlT; “CE and tEstA, on the other hand, indicated relatively moderate hydrolysis activity with higher KM” on tEstA; “CE and tEstA, on the other hand, indicated relatively moderate hydrolysis activity with higher KM” on CE.

The record behind these values is publication PMC10319855, “Unravelling the hidden power of esterases for biomanufacturing of short-chain esters” (Scientific Reports, 2023).
